Consider 43 compounds from ChEMBL document CHEMBL1806382, “Special ergolines efficiently inhibit the chemokine receptor CXCR3 in blood” (Bioorg Med Chem Lett, 2011).

Bounds are passed on as bounds.

What is called IC50 is the concentration needed to halve the response being measured.

Test [1] addresses T1, C-X-C chemokine receptor type 3 (Mus musculus, UniProt O88410).
T1 sequence (O88410 whole entry): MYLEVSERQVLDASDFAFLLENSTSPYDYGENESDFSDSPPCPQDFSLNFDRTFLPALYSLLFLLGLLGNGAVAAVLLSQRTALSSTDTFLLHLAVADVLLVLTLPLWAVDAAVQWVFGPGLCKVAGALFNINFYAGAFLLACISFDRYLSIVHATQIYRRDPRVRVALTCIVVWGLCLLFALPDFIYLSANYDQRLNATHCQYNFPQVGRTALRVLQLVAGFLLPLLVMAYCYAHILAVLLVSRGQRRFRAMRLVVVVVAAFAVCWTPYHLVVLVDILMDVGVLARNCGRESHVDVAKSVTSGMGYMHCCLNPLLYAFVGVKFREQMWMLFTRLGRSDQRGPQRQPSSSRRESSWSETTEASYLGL
Briefly: Antagonist activity at mouse CXCR3 expressed in mouse L1.2 cells assessed as inhibition of ITAC-induced calcium mobilization by FLIPR assay. It counts as functional, cell-based. (In general: Calcium assays in cells follow changes in intracellular calcium, usually with a dye or a luminescent sensor.)

Test [2] has as its target T2, C-X-C chemokine receptor type 3 (Homo sapiens, UniProt P49682).
T2 sequence (P49682 whole entry): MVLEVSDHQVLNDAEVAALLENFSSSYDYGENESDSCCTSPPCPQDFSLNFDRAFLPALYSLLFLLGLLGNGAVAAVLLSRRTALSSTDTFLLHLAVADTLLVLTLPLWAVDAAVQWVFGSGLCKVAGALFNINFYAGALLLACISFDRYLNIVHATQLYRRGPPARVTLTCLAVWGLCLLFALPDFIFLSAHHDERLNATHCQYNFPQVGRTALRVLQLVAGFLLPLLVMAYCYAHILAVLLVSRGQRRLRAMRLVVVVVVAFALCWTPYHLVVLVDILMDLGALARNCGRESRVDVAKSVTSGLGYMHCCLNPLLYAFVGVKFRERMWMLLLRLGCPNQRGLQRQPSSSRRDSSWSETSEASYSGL
Briefly: Antagonist activity at human CXCR3 expressed in mouse L1.2 cells assessed as inhibition of ITAC-induced calcium mobilization by FLIPR assay. It counts as functional, cell-based.

The target in test [3] is T2, C-X-C chemokine receptor type 3. Briefly: Displacement of radiolabeled CXCL11 from human CXCR3 expressed in CHO cells by scintillation proximity assay. It counts as cell-based. On the technique in general: In a scintillation proximity assay essentially only radioactivity close to the scintillant gives light.

For the compound `O=C([C@@H]1C=C2c3cccc4[nH]cc(c34)C[C@H]2N(C(=O)Nc2ccccc2)C1)N1CCC1`, in test [1], the IC50 was found to be 0.014 µM.

As for `CN(C)Cc1ccc(NC(=O)N2C[C@H](C(=O)N3CCCC3)C=C3c4cccc5[nH]cc(c45)C[C@H]32)cc1`, the IC50 in test [2] came to 5.4 µM.

For `CC(C)OC(=O)Cn1cc2c3c(cccc31)C1=C[C@@H](C(=O)N3CCCC3)CN(C(=O)Nc3ccccc3)[C@@H]1C2`, the IC50 in test [1] is 0.053 µM.

`NC(=O)[C@@H]1C=C2c3cccc4[nH]cc(c34)C[C@H]2N(C(=O)Nc2ccccc2)C1` came in with a 50% inhibitory concentration (IC50) in test [3] above 10 µM.

Regarding `O=C([C@@H]1C=C2c3cccc4[nH]cc(c34)C[C@H]2N(C(=O)Nc2ccccc2)C1)N1CC[C@@H](O)C1`, the results for the IC50 in test [2] and in test [3] were 0.022 µM and 0.061 µM, respectively.

Take `O=C([C@@H]1C=C2c3cccc4[nH]cc(c34)C[C@H]2N(C(=O)Nc2ccccc2)C1)N1CCCCCC1`: the figures for the IC50 in test [2], in test [1] and in test [3] were 0.014 µM, 0.013 µM and 0.081 µM, respectively.

As to `CC(=O)N1CCN(C(=O)[C@@H]2C=C3c4cccc5[nH]cc(c45)C[C@H]3N(C(=O)Nc3ccccc3)C2)CC1`, the figures for the IC50 in test [2] and in test [3] were 0.286 µM and 0.825 µM, respectively.

For `CCN(CC)C(=O)[C@@H]1C=C2c3cccc4[nH]cc(c34)C[C@H]2N(C(=O)Nc2ccccc2)C1`, the half-maximal inhibitory concentration (IC50) in test [3] amounted to 0.051 µM.

For the compound `O=C([C@@H]1C=C2c3cccc4[nH]cc(c34)C[C@H]2N(C(=O)Cc2ccccc2)C1)N1CCCC1`, the results for the half-inhibitory concentration (IC50) in test [2] and in test [3] were 0.17 µM and 0.427 µM, respectively.

With `CN(C)C(=O)[C@@H]1C=C2c3cccc4[nH]cc(c34)C[C@H]2N(C(=O)Nc2ccccc2)C1`, the figures for the IC50 in test [2], in test [1] and in test [3] were 0.01 µM, 0.01 µM and 0.028 µM, respectively.

Turning to `CN(CCO)C(=O)[C@@H]1C=C2c3cccc4[nH]cc(c34)C[C@H]2N(C(=O)Nc2ccccc2)C1`, the IC50 is 0.012 µM in test [2], 0.009 µM in test [1] and 0.066 µM in test [3].

In the case of `O=C([C@@H]1C=C2c3cccc4[nH]cc(c34)C[C@H]2N(C(=O)NCc2ccco2)C1)N1CCCC1`, the IC50 in test [2] came out at 10 µM; in test [3], 2.6 µM.

Turning to `CC1CN(C(=O)[C@@H]2C=C3c4cccc5[nH]cc(c45)C[C@H]3N(C(=O)Nc3ccccc3)C2)CC(C)O1` (some centres not stated), the IC50 worked out at 0.216 µM in test [2] and 1.16 µM in test [3].

On to `O=C([C@@H]1C=C2c3cccc4[nH]cc(c34)C[C@H]2N(C(=O)c2ccccc2)C1)N1CCCC1`, for which the figures for the IC50 in test [2] and in test [3] were 6.12 µM and above 10 µM, respectively.

As for `O=C([C@@H]1C=C2c3cccc4[nH]cc(c34)C[C@H]2N(C(=O)Nc2ccccc2)C1)N1CCOCC1`, the IC50 in test [1] turned out to be 0.012 µM; in test [3] it was 0.022 µM.

Consider `CNC(=O)N1C[C@H](C(=O)N2CCCC2)C=C2c3cccc4[nH]cc(c34)C[C@H]21`, for which the IC50 in test [2] and in test [3] was above 10 µM in each case.

`O=C([C@@H]1C=C2c3cccc4[nH]cc(c34)C[C@H]2N(C(=O)NCc2ccccc2)C1)N1CCCC1`: the IC50 in test [2] and in test [3] was 2.2 µM each time.

As for `O=C([C@@H]1C=C2c3cccc4[nH]cc(c34)C[C@H]2N(C(=O)Nc2ccccc2)C1)N1CC[C@H](O)C1`, the IC50 is 0.012 µM in test [2], 0.019 µM in test [1] and 0.047 µM in test [3].

Regarding `CN1CCN(C(=O)[C@@H]2C=C3c4cccc5[nH]cc(c45)C[C@H]3N(C(=O)Nc3ccccc3)C2)CC1`, the IC50 in test [2] stood at 0.083 µM; in test [1], 0.112 µM; in test [3], 0.131 µM.

Regarding `O=C([C@@H]1C=C2c3cccc4[nH]cc(c34)C[C@H]2N(C(=O)NC2CCCCCC2)C1)N1CCCC1`, the concentration for half-maximal inhibition (IC50) in test [2] was determined as 0.014 µM; in test [1] it was 0.016 µM; in test [3], 0.028 µM.

For the compound `CCNC(=O)[C@@H]1C=C2c3cccc4[nH]cc(c34)C[C@H]2N(C(=O)Nc2ccccc2)C1`, the IC50 in test [2] was 0.071 µM; in test [1], 0.09 µM; in test [3] it was 0.379 µM.

In the case of `O=C([C@@H]1C=C2c3cccc4[nH]cc(c34)C[C@H]2N(C(=O)Nc2ccccc2)C1)N1CCNCC1`, the figures for the IC50 in test [2], in test [1] and in test [3] were 0.457 µM, 1.73 µM and 1.01 µM, respectively.

As to `O=C([C@@H]1C=C2c3cccc4[nH]cc(c34)C[C@H]2N(C(=O)NC2CCCC2)C1)N1CCCC1`, the half-inhibitory concentration (IC50) came out at 0.073 µM in test [2], 0.081 µM in test [1] and 0.16 µM in test [3].

Regarding `O=C([C@@H]1C=C2c3cccc4[nH]cc(c34)C[C@H]2N(C(=O)Nc2cccs2)C1)N1CCCC1`, the IC50 was 0.008 µM in test [2], 0.01 µM in test [1] and 0.037 µM in test [3].

For `O=C([C@@H]1C=C2c3cccc4[nH]cc(c34)C[C@H]2N(C(=O)Nc2ccccc2F)C1)N1CCCC1`, the IC50 in test [1] is 0.016 µM.

For `O=C([C@@H]1C=C2c3cccc4[nH]cc(c34)C[C@H]2N(C(=O)Nc2ccccc2)C1)N1CCS(=O)(=O)CC1`, the IC50 in test [2] came out at 0.067 µM; in test [1] it was 0.534 µM; in test [3], 0.4 µM.

Turning to `O=C([C@@H]1C=C2c3cccc4[nH]cc(c34)C[C@H]2N(C(=O)Nc2cccc(F)c2)C1)N1CCCC1`, the IC50 in test [2] came to 0.003 µM; in test [1], 0.002 µM; in test [3], 0.004 µM.

On to `O=C([C@@H]1C=C2c3cccc4[nH]cc(c34)C[C@H]2N(C(=O)Nc2ccccc2)C1)N1C=CCCC1`, for which the IC50 turned out to be 0.004 µM in test [2], 0.002 µM in test [1] and 0.012 µM in test [3].

For the compound `COc1ccccc1NC(=O)N1C[C@H](C(=O)N2CCCC2)C=C2c3cccc4[nH]cc(c34)C[C@H]21`, the values for the half-maximal inhibitory concentration (IC50) in test [2] and in test [3] were 0.06 µM and 0.523 µM, respectively.

Regarding `O=C([C@@H]1C=C2c3cccc4[nH]cc(c34)C[C@H]2N(C(=O)Nc2cc[nH]c2)C1)N1CCCC1`, the IC50 in test [2] and in test [3] was above 10 µM throughout.

With `O=C([C@@H]1C=C2c3cccc4[nH]cc(c34)C[C@H]2N(C(=O)NC2CCCCC2)C1)N1CCCC1`, the IC50 came out at 0.011 µM in test [2], 0.031 µM in test [1] and 0.024 µM in test [3].

As for `O=C([C@@H]1C=C2c3cccc4[nH]cc(c34)C[C@H]2N(C(=O)NC2CCC(O)CC2)C1)N1CCCC1` (some centres not stated), the results for the half-inhibitory concentration (IC50) in test [2] and in test [3] were 9.48 µM and above 10 µM, respectively.

As for `CN(C)Cc1cccc(NC(=O)N2C[C@H](C(=O)N3CCCC3)C=C3c4cccc5[nH]cc(c45)C[C@H]32)c1`, in test [2], the 50% inhibitory concentration (IC50) was 6.2 µM.

As for `O=C([C@@H]1C=C2c3cccc4[nH]cc(c34)C[C@H]2N(C(=O)Nc2ccccc2)C1)N1CC[C@@H](O)[C@@H](O)C1`, the IC50 in test [2] came out at 0.2 µM; in test [1] it was 0.04 µM; in test [3], 0.05 µM.

For `O=C([C@@H]1C=C2c3cccc4[nH]cc(c34)C[C@H]2N(C(=O)Nc2ccc(F)cc2)C1)N1CCCC1`, the IC50 turned out to be 0.004 µM in test [2], 0.004 µM in test [1] and 0.007 µM in test [3].

For `O=C([C@@H]1C=C2c3cccc4[nH]cc(c34)C[C@H]2N(C(=O)Nc2ccccc2)C1)N1CC=CC1`, the IC50 came out at 0.003 µM in test [2], 0.003 µM in test [1] and 0.017 µM in test [3].

In the case of `COc1cccc(NC(=O)N2C[C@H](C(=O)N3CCCC3)C=C3c4cccc5[nH]cc(c45)C[C@H]32)c1`, the IC50 in test [2] turned out to be 0.027 µM; in test [1] it was 0.074 µM; in test [3] it was 0.278 µM.

`CN(C)Cc1ccccc1NC(=O)N1C[C@H](C(=O)N2CCCC2)C=C2c3cccc4[nH]cc(c34)C[C@H]21`: the concentration for half-maximal inhibition (IC50) in test [2] was above 10 µM.

Turning to `CN(C)CCCNC(=O)N1C[C@H](C(=O)N2CCCC2)C=C2c3cccc4[nH]cc(c34)C[C@H]21`, the IC50 in test [2] is above 10 µM.

On to `O=C([C@@H]1C=C2c3cccc4[nH]cc(c34)C[C@H]2N(C(=O)Nc2ccsc2)C1)N1CCCC1`, for which the IC50 in test [2] worked out at 0.007 µM; in test [1], 0.011 µM; in test [3] it was 0.026 µM.

Regarding `O=C1CN(C(=O)[C@@H]2C=C3c4cccc5[nH]cc(c45)C[C@H]3N(C(=O)Nc3ccccc3)C2)CCN1`, the IC50 in test [2] came out at 0.074 µM; in test [3], 0.255 µM.

For the compound `COc1ccc(NC(=O)N2C[C@H](C(=O)N3CCCC3)C=C3c4cccc5[nH]cc(c45)C[C@H]32)cc1`, the IC50 in test [2] was 0.089 µM; in test [3], 0.393 µM.

In the case of `COCCN(CCOC)C(=O)[C@@H]1C=C2c3cccc4[nH]cc(c34)C[C@H]2N(C(=O)Nc2ccccc2)C1`, the IC50 is 0.187 µM in test [2], 0.437 µM in test [1] and 0.305 µM in test [3].
